Measurements taken from US20240252488A1 (KOREA RESEARCH INSTITUTE OF CHEMICAL TECHNOLOGY, priority 2020, published 2024).
Values belong to the molecule of their own block, whether it stands above or below them.

Tests used:
FADD−/− Jurkat cells = experiment: Necroptosis inhibition assay, TNF-α-induced necroptosis (CellTiter-Glo 2.0); format: cell-based, human; settings: TNF-α 15 ng/mL; for Necroptosis inhibition assay (Rescue %) 1 μM: compound 1 μM; for Necroptosis inhibition assay (Rescue %) 10 μM: compound 10 μM
Summary of the method: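 FADD−/− Jurkat cells preincubated 30 min at room temperature with compound at 0.1, 1 and 10 μM final, then stimulated with TNF-α (15 ng/mL final) for 20–24 h at 37 °C, 5% CO2. Viability read as ATP luminescence; cytotoxicity and necroptosis inhibition rate calculated from luminescence values.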

MLKL [1] = target: T1, MLKL (Homo sapiens, UniProt Q8NB16); experiment: MLKL degradation assay in HepG2 cell line (western blot); format: cell-based; design: endogenous in cells; host or cells: HepG2 or HaCaT; settings: cell line not given; for Degradation assay (Degradation %) 1 μM: compound 1 μM; for Degradation assay (Degradation %) 10 μM: compound 10 μM
T1 sequence (Q8NB16 1-471): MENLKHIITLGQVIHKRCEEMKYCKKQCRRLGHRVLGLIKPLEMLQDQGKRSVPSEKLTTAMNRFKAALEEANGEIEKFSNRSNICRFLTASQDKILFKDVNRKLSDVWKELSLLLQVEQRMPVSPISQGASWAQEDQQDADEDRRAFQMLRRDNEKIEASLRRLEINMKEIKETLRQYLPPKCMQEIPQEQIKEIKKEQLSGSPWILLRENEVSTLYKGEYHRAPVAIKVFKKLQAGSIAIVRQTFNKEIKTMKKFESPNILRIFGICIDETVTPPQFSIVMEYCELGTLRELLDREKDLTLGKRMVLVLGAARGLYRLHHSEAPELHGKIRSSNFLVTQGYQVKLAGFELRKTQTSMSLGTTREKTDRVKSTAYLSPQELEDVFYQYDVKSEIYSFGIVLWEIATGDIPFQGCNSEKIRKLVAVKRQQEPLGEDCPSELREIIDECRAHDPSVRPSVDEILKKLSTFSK
Summary of the method: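 HepG2 cells were treated 20-24 h at 37 °C with compound at 1 or 10 μM final. RIPA lysates were normalized by BCA, and 10-15 μg protein per lane was resolved by SDS-PAGE. MLKL was detected by western blot with chemiluminescence.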

MLKL [2] = target: T1, MLKL; experiment: Measurement of binding affinity with MLKL receptor (competitive binding assay, Kd); design: made in house; host or cells: HEK 293 cell line (T7 phage in E. coli BL21-derived host is also described)
Summary of the method: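 MLKL was produced in HEK 293 cells and tagged with DNA for detection. Liganded beads were blocked with excess biotin and washed to cut non-specific binding, then compounds (111× DMSO stocks, 0.9% DMSO in assay) competed for binding. Eluate kinase was measured by qPCR for Kd.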

Degradation assay (Degradation %) 1 μM (MLKL [1]): 13.74%
Degradation assay (Degradation %) 10 μM (MLKL [1]): 14.89%
Kd (MLKL [2]): 39 nM
SMILES: Nc1ncc(-c2cnn(C3CCN(CCCN4CCN(C(=O)COc5ccc6c(c5)C(=O)N(C5CCC(=O)NC5=O)C6=O)CC4)CC3)c2)nc1C(=O)N[C@@H](C(=O)Nc1ccc(F)cc1)c1ccccc1 (stereo partly drawn) [TDH-492, 3-amino-6-(1-(1-(3-(4-(2-((2-(2,6-dioxopiperidin-3-yl)-1,3-dioxoisoindolin-5-yl)oxy)acetyl)piperazin-1-yl)propyl)piperidin-4-yl)-1H-pyrazol-4-yl)-N-((R)-2-((4-fluorophenyl)amino)-2-oxo-1-phenylethyl)pyrazine-2-carboxamide]
Necroptosis inhibition assay (Rescue %) 1 μM (FADD−/− Jurkat cells; FADD−/− Jurkat cells): 10.33%
Necroptosis inhibition assay (Rescue %) 10 μM (FADD−/− Jurkat cells; FADD−/− Jurkat cells): 4.12%

Degradation assay (Degradation %) 1 μM (MLKL [1]): 80.74%
Degradation assay (Degradation %) 10 μM (MLKL [1]): 59.15%
Kd (MLKL [2]): 10 nM
SMILES: Nc1ncc(-c2cnn(C3CCN(CCOC4CCN(c5cccc6c5C(=O)N(C5CCC(=O)NC5=O)C6=O)CC4)CC3)c2)nc1C(=O)OC(C(=O)Nc1ccc(F)cc1)c1ccccc1 (stereo not shown) [TDH-253, 2-((4-fluorophenyl)amino)-2-oxo-1-phenylethyl 3-amino-6-(1-(1-(2-((1-(2-(2,6-dioxopiperidin-3-yl)-1,3-dioxoisoindolin-4-yl)piperidin-4-yl)oxy)ethyl)piperidin-4-yl)-1H-pyrazol-4-yl)pyrazine-2-carboxylate]
Necroptosis inhibition assay (Rescue %) 1 μM (FADD−/− Jurkat cells): 65.01%
Necroptosis inhibition assay (Rescue %) 10 μM (FADD−/− Jurkat cells): 36.1%

Degradation assay (Degradation %) 1 μM (MLKL [1]): 87.78%
Degradation assay (Degradation %) 10 μM (MLKL [1]): 86.6%
Kd (MLKL [2]): 1.4 nM
SMILES: Nc1ncc(-c2cnn(C3CCN(CCOC4CCN(C(=O)COc5ccc6nnn(C7CCC(=O)NC7=O)c(=O)c6c5)CC4)CC3)c2)nc1C(=O)O[C@@H](C(=O)Nc1ccc(F)cc1)c1ccccc1 (stereo partly drawn) [TDH-373, (R)-2-((4-fluorophenyl)amino)-2-oxo-1-phenylethyl 3-amino-6-(1-(1-(2-((1-(2-((3-(2,6-dioxopiperidin-3-yl)-4-oxo-3,4-dihydrobenzo[d][1,2,3]triazin-6-yl)oxy)acetyl)piperidin-4-yl)oxy)ethyl)piperidin-4-yl)-1H-pyrazol-4-yl)pyrazine-2-carboxylate]
Necroptosis inhibition assay (Rescue %) 1 μM (FADD−/− Jurkat cells): 62.68%
Necroptosis inhibition assay (Rescue %) 10 μM (FADD−/− Jurkat cells): 40.09%

Degradation assay (Degradation %) 1 μM (MLKL [1]): 70.89%
Degradation assay (Degradation %) 10 μM (MLKL [1]): 81.41%
Kd (MLKL [2]): 0.4 nM
SMILES: Nc1ncc(-c2cnn(C3CCN(CC4CCN(CC5CCN(C(=O)c6cccc(C(=O)NC7CCC(=O)NC7=O)c6)CC5)CC4)CC3)c2)nc1C(=O)O[C@@H](C(=O)Nc1ccc(F)cc1)c1ccccc1 (stereo partly drawn) [TDH-546, (R)-2-((4-fluorophenyl)amino)-2-oxo-1-phenylethyl 3-amino-6-(1-(1-((1-((1-(3-((2,6-dioxopiperidin-3-yl)carbamoyl)benzoyl)piperidin-4-yl)methyl)piperidin-4-yl)methyl)piperidin-4-yl)-1H-pyrazol-4-yl)pyrazine-2-carboxylate]
Necroptosis inhibition assay (Rescue %) 1 μM (FADD−/− Jurkat cells; FADD−/− Jurkat cells): 31.08%
Necroptosis inhibition assay (Rescue %) 10 μM (FADD−/− Jurkat cells; FADD−/− Jurkat cells): 28.77%

Degradation assay (Degradation %) 1 μM (MLKL [1]): 57.4%
Degradation assay (Degradation %) 10 μM (MLKL [1]): 17.94%
Kd (MLKL [2]): 0.22 nM
SMILES: COc1ccc(C(=O)N2CCC(CCN3CCC(n4cc(-c5cnc(N)c(C(=O)O[C@@H](C(=O)Nc6ccc(F)cc6)c6ccccc6)n5)cn4)CC3)CC2)cc1N1CCC(=O)NC1=O [TDH-446, (R)-2-((4-fluorophenyl)amino)-2-oxo-1-phenylethyl 3-amino-6-(1-(1-(2-(1-(3-(2,4-dioxotetrahydropyrimidin-1(2H)-yl)-4-methoxybenzoyl)piperidin-4-yl)ethyl)piperidin-4-yl)-1H-pyrazol-4-yl)pyrazine-2-carboxylate]
Necroptosis inhibition assay (Rescue %) 1 μM (FADD−/− Jurkat cells; FADD−/− Jurkat cells): 34.93%
Necroptosis inhibition assay (Rescue %) 10 μM (FADD−/− Jurkat cells; FADD−/− Jurkat cells): 8.47%

Degradation assay (Degradation %) 1 μM (MLKL [1]): 79.04%
Degradation assay (Degradation %) 10 μM (MLKL [1]): 81.95%
Kd (MLKL [2]): 0.42 nM
SMILES: Nc1ncc(-c2cnn(C3CCN(CCCN4CCN(C(=O)CCc5ccc6c(c5)C(=O)N(C5CCC(=O)NC5=O)C6=O)CC4)CC3)c2)nc1C(=O)O[C@@H](C(=O)Nc1ccc(F)cc1)c1ccccc1 (stereo partly drawn) [TDH-383, (R)-2-((4-fluorophenyl)amino)-2-oxo-1-phenylethyl 3-amino-6-(1-(1-(3-(4-(3-(2-(2,6-dioxopiperidin-3-yl)-1,3-dioxoisoindolin-5-yl)propanoyl)piperazin-1-yl)propyl)piperidin-4-yl)-1H-pyrazol-4-yl)pyrazine-2-carboxylate]
Necroptosis inhibition assay (Rescue %) 1 μM (FADD−/− Jurkat cells): 46.33%
Necroptosis inhibition assay (Rescue %) 10 μM (FADD−/− Jurkat cells): 25.19%

Further lines, the molecule ahead of its results:

SMILES: Nc1ncc(-c2cnn([C@H]3CCN(CC4CCN(C(=O)COc5ccc6c(c5)C(=O)N(C5CCC(=O)NC5=O)C6=O)CC4)C3)c2)nc1C(=O)OC(C(=O)Nc1ccc(F)cc1)c1ccccc1 (stereo partly drawn) [TDH-284, 2-((4-fluorophenyl)amino)-2-oxo-1-phenylethyl 3-amino-6-(1-((3S)-1-((1-(2-((2-(2,6-dioxopiperidin-3-yl)-1,3-dioxoisoindolin-5-yl)oxy)acetyl)piperidin-4-yl)methyl)pyrrolidin-3-yl)-1H-pyrazol-4-yl)pyrazine-2-carboxylate]
Necroptosis inhibition assay (Rescue %) 1 μM (FADD−/− Jurkat cells): 75.95%
Necroptosis inhibition assay (Rescue %) 10 μM (FADD−/− Jurkat cells): 52.77%
Degradation assay (Degradation %) 1 μM (MLKL [1]): 42.05%
Degradation assay (Degradation %) 10 μM (MLKL [1]): 58.09%
Kd (MLKL [2]): 2.6 nM

SMILES: Nc1ncc(-c2cnn(C3CCN(CC4CN(C(=O)C5CCN(c6ccc7c(c6)C(=O)N(C6CCC(=O)NC6=O)C7=O)CC5)CCO4)CC3)c2)nc1C(=O)OC(C(=O)Nc1ccc(F)cc1)c1ccccc1 (stereo not shown) [TDH-305, 2-((4-fluorophenyl)amino)-2-oxo-1-phenylethyl 3-amino-6-(1-(1-((4-(1-(2-(2,6-dioxopiperidin-3-yl)-1,3-dioxoisoindolin-5-yl)piperidine-4-carbonyl)morpholin-2-yl)methyl)piperidin-4-yl)-1H-pyrazol-4-yl)pyrazine-2-carboxylate]
Necroptosis inhibition assay (Rescue %) 1 μM (FADD−/− Jurkat cells): 66.84%
Necroptosis inhibition assay (Rescue %) 10 μM (FADD−/− Jurkat cells): 52.42%
Degradation assay (Degradation %) 1 μM (MLKL [1]): 72.47%
Degradation assay (Degradation %) 10 μM (MLKL [1]): 50.39%
Kd (MLKL [2]): 2.8 nM

SMILES: Nc1ncc(-c2cnn(C3CCN(CCc4cn(C5CCN(C(=O)CNc6ccc7c(c6)C(=O)N(C6CCC(=O)NC6=O)C7=O)CC5)nn4)CC3)c2)nc1C(=O)O[C@@H](C(=O)Nc1ccc(F)cc1)c1ccccc1 (stereo partly drawn) [TDH-452, (R)-2-((4-fluorophenyl)amino)-2-oxo-1-phenylethyl 3-amino-6-(1-(1-(2-(1-(1-((2-(2,6-dioxopiperidin-3-yl)-1,3-dioxoisoindolin-5-yl)glycyl)piperidin-4-yl)-1H-1,2,3-triazol-4-yl)ethyl)piperidin-4-yl)-1H-pyrazol-4-yl)pyrazine-2-carboxylate]
Necroptosis inhibition assay (Rescue %) 1 μM (FADD−/− Jurkat cells; FADD−/− Jurkat cells): 38.27%
Necroptosis inhibition assay (Rescue %) 10 μM (FADD−/− Jurkat cells; FADD−/− Jurkat cells): 26.02%
Degradation assay (Degradation %) 1 μM (MLKL [1]): 61.94%
Degradation assay (Degradation %) 10 μM (MLKL [1]): 52.12%
Kd (MLKL [2]): 1.8 nM

SMILES: Nc1ncc(-c2cnn(C3CCN(CCCN4CCN(c5cccc6c5C(=O)N(C5CCC(=O)NC5=O)C6=O)CC4)CC3)c2)nc1C(=O)OC(C(=O)Nc1ccc(F)cc1)c1ccccc1 (stereo not shown) [TDH-245, 2-((4-fluorophenyl)amino)-2-oxo-1-phenylethyl 3-amino-6-(1-(1-(3-(4-(2-(2,6-dioxopiperidin-3-yl)-1,3-dioxoisoindolin-4-yl)piperazin-1-yl)propyl)piperidin-4-yl)-1H-pyrazol-4-yl)pyrazine-2-carboxylate]
Necroptosis inhibition assay (Rescue %) 1 μM (FADD−/− Jurkat cells): 65.75%
Necroptosis inhibition assay (Rescue %) 10 μM (FADD−/− Jurkat cells): 14.51%
Degradation assay (Degradation %) 1 μM (MLKL [1]): 67.67%
Degradation assay (Degradation %) 10 μM (MLKL [1]): 62.75%
Kd (MLKL [2]): 3.6 nM

SMILES: Nc1ncc(-c2cnn(C3CCN(CC4CCN(C(=O)C5CN(c6cccc7c6C(=O)N(C6CCC(=O)NC6=O)C7=O)C5)CC4)CC3)c2)nc1C(=O)O[C@@H](C(=O)Nc1ccc(F)cc1)c1ccccc1 (stereo partly drawn) [TDH-138, (R)-2-((4-fluorophenyl)amino)-2-oxo-1-phenylethyl 3-amino-6-(1-(1-((1-(1-(2-(2,6-dioxopiperidin-3-yl)-1,3-dioxoisoindolin-4-yl)azetidine-3-carbonyl)piperidin-4-yl)methyl)piperidin-4-yl)-1H-pyrazol-4-yl)pyrazine-2-carboxylate]
Necroptosis inhibition assay (Rescue %) 1 μM (FADD−/− Jurkat cells): 70.53%
Necroptosis inhibition assay (Rescue %) 10 μM (FADD−/− Jurkat cells): 60.57%
Degradation assay (Degradation %) 1 μM (MLKL [1]): 40.46%
Degradation assay (Degradation %) 10 μM (MLKL [1]): 25.69%
Kd (MLKL [2]): 4.2 nM
